# Legend:
# Test in all cases: relative viability (nuclei count vs DMSO), 5 days (fraction); higher = more cells survive
# Crenolanib + AZD7762 = compound: CC1(COc2ccc3c(c2)ncn3-c2ccc3cccc(N4CCC(N)CC4)c3n2)COC1 [Crenolanib] + NC(=O)Nc1cc(-c2cccc(F)c2)sc1C(=O)N[C@H]1CCCNC1 [AZD7762] (partner 0.2 µM)
# Method in brief: (§1)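 Dosing by pin tool came one day after lung cancer cell lines were seeded in 1536-well plates, using either one drug or a fixed anchor-drug dose plus five library-drug doses (not always all listed) in √10 steps. After 5 days, nuclei were counted on 4× images. Relative viability is treated-well nuclei count divided by vehicle-well nuclei count, and values are medians of duplicate plates.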
# Tivantinib + Palbociclib = compound: O=C1NC(=O)[C@@H](c2cn3c4c(cccc24)CCC3)[C@@H]1c1c[nH]c2ccccc12 [Tivantinib] + CC(=O)c1c(C)c2cnc(Nc3ccc(N4CCNCC4)cn3)nc2n(C2CCCC2)c1=O [Palbociclib] (partner 0.5 µM)
# Method in brief: as §1
# Crenolanib + Palbociclib = compound: CC1(COc2ccc3c(c2)ncn3-c2ccc3cccc(N4CCC(N)CC4)c3n2)COC1 [Crenolanib] + CC(=O)c1c(C)c2cnc(Nc3ccc(N4CCNCC4)cn3)nc2n(C2CCCC2)c1=O [Palbociclib] (partner 0.5 µM)
# Method in brief: as §1
# Crenolanib + Luminespib = compound: CC1(COc2ccc3c(c2)ncn3-c2ccc3cccc(N4CCC(N)CC4)c3n2)COC1 [Crenolanib] + CCNC(=O)c1noc(-c2cc(C(C)C)c(O)cc2O)c1-c1ccc(CN2CCOCC2)cc1 [Luminespib] (partner 0.01 µM)
# Method in brief: as §1
Cell Line,relative viability (Crenolanib + AZD7762; first compound 0.01 µM),relative viability (Crenolanib + AZD7762; first compound 0.03162 µM),relative viability (Crenolanib + AZD7762; first compound 0.1 µM),relative viability (Crenolanib + AZD7762; first compound 0.3162 µM),relative viability (Crenolanib + AZD7762; first compound 1 µM),relative viability (Tivantinib + Palbociclib; first compound 0.01 µM),relative viability (Tivantinib + Palbociclib; first compound 0.03162 µM),relative viability (Tivantinib + Palbociclib; first compound 0.1 µM),relative viability (Tivantinib + Palbociclib; first compound 0.3162 µM),relative viability (Crenolanib + Palbociclib; first compound 0.01 µM),relative viability (Crenolanib + Palbociclib; first compound 0.03162 µM),relative viability (Crenolanib + Palbociclib; first compound 0.1 µM),relative viability (Crenolanib + Palbociclib; first compound 0.3162 µM),relative viability (Crenolanib + Palbociclib; first compound 1 µM),relative viability (Crenolanib + Luminespib; first compound 0.01 µM),relative viability (Crenolanib + Luminespib; first compound 0.03162 µM),relative viability (Crenolanib + Luminespib; first compound 0.1 µM),relative viability (Crenolanib + Luminespib; first compound 0.3162 µM),relative viability (Crenolanib + Luminespib; first compound 1 µM)
BEN,0.684,0.612,0.704,0.735,0.71,0.446,0.474,0.508,0.447,0.464,0.482,0.48,0.524,0.497,0.644,0.257,0.425,0.528,0.32
LCLC-103H,0.758,0.761,0.714,0.759,0.702,0.477,0.449,0.486,0.409,0.541,0.441,0.465,0.447,0.492,1.02,0.922,0.878,1.06,0.863
ChaGo-K-1,0.876,0.863,0.866,0.933,0.891,0.95,0.946,0.93,0.925,0.955,0.941,0.913,0.821,0.986,0.595,0.612,0.655,0.655,0.68
NCI-H1993,0.843,0.802,0.889,0.974,0.688,0.701,0.621,0.583,0.567,0.596,0.704,0.621,0.688,0.579,0.998,0.839,0.684,0.823,0.783
NCI-H2347,0.815,0.772,0.678,0.818,0.85,0.399,0.472,0.422,0.381,0.458,0.453,0.395,0.435,0.481,0.44,,,0.556,0.353
HCC-44,1.05,0.955,1.01,1.07,0.973,0.946,0.953,0.883,0.945,1.02,0.897,0.939,0.994,0.921,1.26,0.98,1.05,0.771,0.784
EMC-BAC-2,1.1,,1.1,1.25,1.07,0.518,0.512,0.503,0.527,0.525,,0.551,0.486,0.51,1.31,1.17,1.17,1.45,1.18
NCI-H3122,1.02,0.958,1.02,1.04,0.996,0.208,0.216,0.164,0.186,0.177,0.193,0.196,0.196,0.206,0.0862,0.0824,0.0708,0.0964,0.0864
NCI-H358,0.577,0.67,0.465,0.537,0.584,0.172,0.16,0.151,0.0952,0.164,0.131,0.136,0.135,0.125,1.3,0.307,0.232,0.343,0.337
NCI-H1944,0.551,0.587,0.534,0.605,0.497,0.366,0.327,0.324,0.297,0.356,0.315,0.335,0.324,0.3,0.729,0.801,0.759,0.871,0.655
NCI-H2342,0.607,0.475,0.475,0.532,0.484,0.498,0.49,0.719,0.438,0.521,0.545,0.574,0.533,0.598,0.822,0.701,0.779,0.77,0.807
H3255,1.05,0.761,0.907,0.835,0.797,0.298,0.303,0.331,,0.303,0.309,0.325,0.301,0.315,0.963,1.06,0.986,0.917,0.854
NCI-H1975,0.741,0.732,0.629,0.639,0.712,0.55,0.536,0.536,0.37,0.623,0.575,0.498,0.568,0.555,0.337,0.22,0.182,0.269,0.185
NCI-H647,0.616,0.497,0.448,0.481,0.424,0.433,0.347,0.356,0.409,0.401,0.341,0.434,0.363,0.51,0.202,0.206,0.44,0.233,0.107
NCI-H441,1.24,1.56,1.15,1.33,1.17,0.224,0.209,0.199,0.212,0.261,0.236,0.217,0.262,0.242,0.387,0.393,0.333,0.433,0.359
NCI-H1355,0.729,0.89,0.705,0.732,0.653,0.395,0.374,0.385,0.384,0.405,0.457,0.4,0.472,0.351,0.741,0.777,0.65,0.721,0.665
NCI-H23,0.273,0.309,0.244,0.268,0.276,0.614,0.457,0.462,0.493,0.588,0.516,0.454,0.539,0.449,0.235,0.279,0.226,0.216,0.174
